Measurements from PMC8556396, “Statin-mediated disruption of Rho GTPase prenylation and activity inhibits respiratory syncytial virus infection” (Communications Biology, 2021).
Several values for one entry are separate records, joined by “and”; a condition that tells them apart may be missing. Equal entries are not always repeated.

Experiments:
[1] = system: RSV; design: method as in PMID 11257039; conditions: daily, 50 mg/kg, oral; cited from earlier work
[2] = system: hepatitis D; design: method as in PMID 26189433; conditions: oral administration, chronically infected patients; cited from earlier work
[3] = system: RSV A2; experiment: Immunofluorescence staining and microscopy of RSV F and N; conditions: for RSV F intensity (a.u.): Fig 5D; for RSV N intensity (a.u.): Fig 5E; for effect of prenyltransferase inhibitor on RSV A2 infection: HEp-2, F and N immunofluorescence;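 for RSV F intensity (a.u.): fluorescence normalized to total nuclear count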;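 for RSV N intensity (a.u.): fluorescence normalized to total nuclear count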
Procedure: HEp-2 cells were seeded to No. 1 glass coverslips (1014355117NR1, Thermo Fisher Scientific) for high-resolution confocal microscopy, or black, flat, microclear-bottom 96-well plates (655096, Greiner Bio-One) for high-throughput quantification of RSV F and N immunofluorescence. Cells were infected with RSV A2 (MOI 0.5). At 48 h p.i., cells were fixed in 4% paraformaldehyde for 30 min and permeabilized with 0.3% Triton X-100 for 10 min at room temperature. F and N proteins were probed using mouse anti-RSV F (RSV3216) and mouse anti-RSV N (RSV3132) mAbs (Bio-Rad Antibodies) diluted 1:500 in PBS + 0.1% Tween-20 (PBST), or mouse anti-RSV F mAb Alexa Fluor 488 conjugate (Millipore Sigma, 133/1H) diluted 1:200 in PBST over a 1-h incubation at room temperature. This was followed by detection with secondary anti-mouse Fab fragments conjugated to Alexa Fluor 488 (4408) or 647 (4410) (Cell Signaling Technology) diluted 1:1000 in PBST over a 1-h incubation at room temperature. Fluorescent images were acquired using either the Cellomics ArrayScan VTI HCS Reader at ×10 magnification (for quantification) or Olympus IX81 Spinning Disk Confocal microscope at ×60 magnification with oil immersion (for high-resolution images). F and N immunofluorescence was quantified in CellProfiler and normalized to total nuclear count.

[4] = in vivo; cited from earlier work
[5] = target: farnesyltransferase; design: method as in earlier work; conditions: reported values, authors' response to reviewers; cited from earlier work
[6] = FTI-276 0.5 uM, perillyl alcohol 0.5 mM
[7] = FTI-276 1 uM, perillyl alcohol 1 mM
[8] = FTI-276 5 uM, perillyl alcohol 5 mM

| Structure (SMILES) | RSV infection in mice [1] | hepatitis D viral titers [2] | RSV F intensity (a.u.) [3, 6] | RSV F intensity (a.u.) [3, 7] | RSV F intensity (a.u.) [3, 8] | RSV N intensity (a.u.) [3, 6] | RSV N intensity (a.u.) [3, 7] | effect of prenyltransferase inhibitor on RSV A2 infection [3] | reduction of N protein intensity ([3]; relative to DMSO, 48 h p.i., PA 5.0 mM, EHT 1864 20.0 µM) [%] | tolerability [4] | RSV N intensity (a.u.) [3, 8] | IC50 [5] |
| --- | --- | --- | --- | --- | --- | --- | --- | --- | --- | --- | --- | --- |
| CC[C@H](C)C(=O)O[C@H]1C[C@@H](C)C=C2C=C[C@H](C)[C@H](CC[C@@H]3C[C@@H](O)CC(=O)O3)[C@H]21 [Lovastatin, lovastatin] | inhibition of RSV in mice | – | – | – | – | – | – | – | – | – | – | – |
| NC(=O)N1CCC(CC(=O)N2CCC([C@H]3c4ncc(Br)cc4CCc4cc(Cl)cc(Br)c43)CC2)CC1 [Lonafarnib, lonafarnib] | – | reduced hepatitis D viral titers | – | – | – | – | – | – | – | – | – | – |
| C=C(C)[C@@H]1CC=C(CO)CC1 [Perillyl alcohol, perillyl alcohol] | – | – | 4.838 a.u. and 4.168 a.u. and 3.383 a.u. | 5.114 a.u. and 3.157 a.u. | 0.705 a.u. and 0.8175 a.u. and 0.8487 a.u. | 6.098 a.u. and 3.977 a.u. and 5.388 a.u. and 3.797 a.u. | 3.037 a.u. and 4.82 a.u. and 2.725 a.u. and 4.829 a.u. | dose-dependently reduced RSV A2 infection | 82.7 ± 3.3 | well-tolerated in humans | – | – |
| CSCC[C@H](NC(=O)c1ccc(NC[C@@H](N)CS)cc1-c1ccccc1)C(=O)O.O=C(O)C(F)(F)F [FTI-276, FTI-276 trifluoroacetate salt] | – | – | 5.34 a.u. and 5.015 a.u. and 5.509 a.u. and 5.625 a.u. | 5.192 a.u. and 5.249 a.u. and 4.836 a.u. and 4.909 a.u. | 5.352 a.u. and 4.639 a.u. and 5.159 a.u. | 6.5419 a.u. and 6.282 a.u. and 5.918 a.u. | 5.776 a.u. and 5.651 a.u. and 6.107 a.u. and 5.567 a.u. | did not cause any significant changes to infection | – | – | 5.559 a.u. and 5.477 a.u. and 5.133 a.u. and 5.196 a.u. | low nanomolar range |
